Common to all, as to test: growth of human tumour cells (NCI), 48 h
Experiment [1] deals with A498 renal.
The test system of experiment [2] is CCRF-CEM leukemia.
For experiment [3], the system named is HCT-15 colon.
Experiment [4] relates to HOP-92 NSCLC.
The test system of experiment [5] is KM12 colon.
For experiment [6], the system named is NCI-H460 lung.
The subject of experiment [7] is SF-268 CNS.
The test system of experiment [8] is SF-295 CNS.
Experiment [9] concerns SF-539 CNS.

SMILES strings stand for the structures.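 Compound exposure: 48 hours, 5 concentrations, 96-well plates. GI50 is the concentration that inhibits growth by half. At the TGI there is no net growth.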

Turning to `N#Cc1c(-c2ccco2)cc(-c2ccc(NCc3nc4ccccc4[nH]3)cc2)nc1N`, the TGI in [1] is greater than 100 µM; in [2] it was greater than 100 µM; in experiment [3], 69.2 µM; in [4], 67.4 µM; in experiment [5], 38 µM; in experiment [6], 43.3 µM. Also, the results for the TGI in [7], in experiment [8] and in experiment [9] were greater than 100 µM, 52.3 µM and 47.6 µM, respectively.
For `O=C1C(/C=C/c2ccc(Cl)cc2)=NNC2N1N=C1NC(=O)C3(NN12)c1ccccc1-c1ccccc13` (stereo not given), the TGI in experiment [1], in experiment [2], in experiment [3], in experiment [4], in experiment [6] and in experiment [7] was greater than 100 µM in each case. The TGI in experiment [8] and in [9] was greater than 100 µM each time.
For `COC(=O)C(CCCC1(c2ccccc2)OCCO1)C(C)=O` (stereo not given), the TGI in experiment [1], in [2], in [3], in [5], in experiment [6] and in experiment [7] was greater than 100 µM each time. The TGI in experiment [8] and in experiment [9] was greater than 100 µM throughout.
Turning to `COc1cccc(NC(=S)Nn2c(C)nc3ccccc3c2=O)c1`, the TGI in experiment [1], in [2], in experiment [3], in [4], in experiment [5] and in experiment [6] was greater than 100 µM each time. Moreover, the TGI in experiment [7], in [8] and in experiment [9] was greater than 100 µM in each case.
For the compound `CCCCc1c2c(nc3c1CCCC3O)/C(=C/c1ccccc1)CCC2` (stereo not given), the TGI in experiment [1] is greater than 100 µM; in experiment [2] it was 43.9 µM; in experiment [3] it was 61.6 µM; in experiment [4] it was greater than 100 µM; in experiment [5], 36.8 µM; in experiment [6], greater than 100 µM. The TGI is 85.3 µM in experiment [7], greater than 100 µM in experiment [8] and 66.9 µM in [9].
For the compound `CCCc1cc(=O)oc2c3c(c4c(c12)OC(C)(C)C=C4)O[C@@H](C)[C@H](C)C3=O`, the TGI in experiment [1] is 29.9 µM; in [2] it was 48.3 µM; in experiment [3], 46.1 µM; in [5] it was 27.9 µM; in [6] it was 44.4 µM; in [7], 45.2 µM. For the same compound, the TGI in experiment [8] is 31.7 µM; in [9], 37.4 µM.
As for `CC(OC(=O)NCn1cc(-c2ccccc2)nn1)c1ccccc1` (stereo not given), the TGI in experiment [2], in experiment [3], in experiment [4], in experiment [5], in experiment [6] and in [8] was greater than 100 µM each time. In experiment [9], this compound gave a TGI greater than 100 µM.
Regarding `O=C1NC(Cc2c[nH]c3ccccc23)C(=O)N2C(C3CCCCC3)c3[nH]c4ccccc4c3C[C@@H]12` (stereo not given in full), the TGI is 37.5 µM in experiment [1]; 35.9 µM in experiment [3]; 46.2 µM in [4]; 31.4 µM in experiment [5]; 49.3 µM in [7]; 43.5 µM in [8].
In the case of `Cc1ccc(-c2c(C#N)c(S)n(NS(=O)(=O)c3ccc(C)cc3)c(=O)c2C#N)cc1`, the TGI in experiment [1] is greater than 100 µM; in [2], greater than 100 µM; in experiment [3], 40.4 µM; in experiment [4], greater than 100 µM; in [5] it was 35.2 µM; in experiment [8] it was 51.3 µM. For the same compound, in experiment [9], the TGI was 43.2 µM.
Turning to `COC(=O)C1=C(C(=O)OC)C2(OC(C)=O)c3ccccc3-c3ccccc3C12` (stereo not given), the TGI came out at 32 µM in experiment [1]; 10.3 µM in experiment [3]; 3.67 µM in experiment [4]; 26.8 µM in experiment [5]; 32.8 µM in experiment [6]; 22 µM in experiment [7]. In addition, the TGI is 33 µM in [8] and 31.6 µM in [9].
Take `NCCCNc1nc2ccccc2c2c(=O)c3cc(C(F)(F)F)ccc3sc12`: the GI50 is 1730 nM in experiment [1]; 1370 nM in [4]; 1660 nM in experiment [6]; 1800 nM in experiment [8]; 1710 nM in [9]. Besides, the TGI came out at 3.23 µM in [1]; 2.85 µM in [4]; 3.17 µM in experiment [6]; 3.21 µM in [8]; 3.16 µM in experiment [9].
As to `CSc1nc(-c2cc3c(c(SC)n2)CCCCC3)cc2c1CCCCC2`, the TGI in [1], in experiment [2], in [3], in experiment [5], in [6] and in experiment [7] was greater than 100 µM each time. Moreover, the TGI in experiment [8] and in experiment [9] was greater than 100 µM in each case.
For the compound `COc1ccc(C2C3C(=O)C=CC(=O)C3[C@@H]2C)cc1OC` (stereo not given in full), the TGI was greater than 100 µM in experiment [1]; 62.4 µM in [3]; greater than 100 µM in experiment [4]; greater than 100 µM in [5]; greater than 100 µM in experiment [6]; greater than 100 µM in experiment [7]. In addition, the TGI in [8] and in experiment [9] was greater than 100 µM throughout.

The values above are taken from PubChem BioAssay (NCI).
